Molecular target: (α4)2(β2)3 nAChR (A2B3, high affinity) (Rattus norvegicus, UniProt P09483+P12390, P09483:H144V/P09483:Q152F/P09483:T154L)
Test: two-electrode voltage clamp, Xenopus oocytes, agonist dose-response
Format: cell-based
Details: -60 mV, ND96 Ca2+ free, pH 7.5

(α4)2(β2)3 nAChR (A2B3, high affinity), sequence (P12390 25-500): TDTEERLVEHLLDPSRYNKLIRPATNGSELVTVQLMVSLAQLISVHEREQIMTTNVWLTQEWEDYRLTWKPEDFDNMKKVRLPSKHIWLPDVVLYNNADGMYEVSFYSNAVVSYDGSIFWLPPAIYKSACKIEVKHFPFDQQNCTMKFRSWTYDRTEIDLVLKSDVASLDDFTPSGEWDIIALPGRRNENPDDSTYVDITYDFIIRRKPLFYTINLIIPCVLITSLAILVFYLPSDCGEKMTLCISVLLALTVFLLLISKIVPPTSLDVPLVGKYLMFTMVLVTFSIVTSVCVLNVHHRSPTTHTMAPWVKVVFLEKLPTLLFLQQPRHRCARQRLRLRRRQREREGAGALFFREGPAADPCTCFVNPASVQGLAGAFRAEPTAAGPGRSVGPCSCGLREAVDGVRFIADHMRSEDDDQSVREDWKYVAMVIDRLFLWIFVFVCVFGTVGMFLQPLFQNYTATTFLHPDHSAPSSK
(α4)2(β2)3 nAChR (A2B3, high affinity), sequence (P09483 31-630 H144V/Q152F/T154L): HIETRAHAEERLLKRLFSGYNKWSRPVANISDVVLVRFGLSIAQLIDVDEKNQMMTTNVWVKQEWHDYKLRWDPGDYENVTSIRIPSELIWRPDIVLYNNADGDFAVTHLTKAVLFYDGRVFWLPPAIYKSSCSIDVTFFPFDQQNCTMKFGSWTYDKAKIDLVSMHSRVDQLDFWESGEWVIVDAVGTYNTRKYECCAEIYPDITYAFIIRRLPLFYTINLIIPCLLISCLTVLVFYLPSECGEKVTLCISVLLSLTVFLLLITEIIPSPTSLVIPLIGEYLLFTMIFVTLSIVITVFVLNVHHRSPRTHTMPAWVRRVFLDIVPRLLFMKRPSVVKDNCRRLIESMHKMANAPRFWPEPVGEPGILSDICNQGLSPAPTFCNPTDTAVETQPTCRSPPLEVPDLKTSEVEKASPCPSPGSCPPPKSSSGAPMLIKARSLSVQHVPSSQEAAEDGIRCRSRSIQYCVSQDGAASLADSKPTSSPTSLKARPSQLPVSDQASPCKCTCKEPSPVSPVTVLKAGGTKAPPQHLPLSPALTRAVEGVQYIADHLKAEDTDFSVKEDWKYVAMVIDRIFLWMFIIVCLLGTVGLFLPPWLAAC

OCCCCC#Cc1cncc(OC[C@@H]2CCN2)c1 [sazetidine-A]
EC50: 4.8 ± 0.3 nM

From PMC4033646 (ACS Chemical Biology, 2014)
